Test results: EP2138586A1, “Process for the regioselective preparation of disaccharides or oligosaccharides” (Cognis IP Management GmbH, priority 2008, dated 2009)

Assay: log P of the solvents used in the transglycosylation (Table 1)
Assay type: physicochemical
Details: property of the dialkyl amide solvent; method not described

| logP | SMILES |
| --- | --- |
| -0.69 | CC(O)C(=O)N(C)C (centres unmarked) [LDMA, lactic acid dimethyl amide] |
| 1.42 | CCCCCCCC(=O)N(C)C [CDMA, caprylic dimethyl amide] |
